Source: patent US9549965B2, “Pharmaceutical composition for treating a microbial infection” (HELPERBY THERAPEUTICS LIMITED, priority 2010, dated 2017)
≈ marks a conversion by molar mass, not a printed value. Structures can show the parent of a compound that is named as a salt. Where two headings read alike, the source gives them in different places.

What was measured:
log phase E. coli = assay: MIC against log phase E. coli; format: cell-based, Escherichia coli
Description: (§1) Escherichia coli K12; Gram negative; Reference strain.
The above-described overnight cultures were diluted (1000×) with iso-sensitest broth. The cultures were then incubated at 37° C. with shaking for 1-2 hours to reach log CFU 6, which served as log phase cultures.
The bactericidal activity of the drugs against log phase cultures were determined by minimal inhibitory concentration (MIC) of the drugs, which is defined as the lowest concentration which inhibits visible growth. Different concentrations of each test compound were incubated with the log-phase cultures in 96 well plates for 24 hours. Bactericidal activity was then examined by taking a spectrophotometer reading (using a plate reader) at 405 nm.

persistent E. coli = assay: Bactericidal activity against persistent E. coli selected by gentamicin; format: cell-based, Escherichia coli; conditions: for log reduction at 6.25 µg/mL / log reduction at 12.5 µg/mL / log reduction at 25 µg/mL: Escherichia coli, read-out: Log Kill
Description: as §1
An antibiotic (gentamicin) was added to 5-6 day stationary-phase cultures to the final concentration of 50 to 100 μg/ml for 24 hours. After 24 hours of antibiotic treatment, the cells are washed 3 times with phosphate buffered saline (PBS), and then resuspended in PBS. The surviving bacterial cells are used as persisters. Viability is estimated by CFU counts. The persisters were then used in measurements of bactericidal activity for test compounds.
Different concentrations of each test compound were incubated with the (persister) cell suspension in 96 well plates for various periods of time (24 and 48 hours). Bactericidal activity was then determined by taking CFU counts of the resulting cultures, as described above.

[1] = tested on: stationary phase S. aureus; assay: Bactericidal activity against stationary phase S. aureus (CFU counts); format: cell-based, Staphylococcus aureus; conditions: for log reduction at 6.25 µg/mL / log reduction at 12.5 µg/mL / log reduction at 25 µg/mL: Staphylococcus aureus, read-out: Log Kill
Description: Staphylococcus aureus (Oxford strain); Gram positive; Reference strain.
(§2) Bacteria were grown in 10 ml of nutrient broth (No. 2 (Oxoid)) overnight at 37° C., with continuous shaking at 120 rpm. The overnight cultures were diluted (1000×) in 100 ml of growth medium and then incubated without shaking for 10 days. Viability of the bacteria was estimated by colony forming unit (CFU) counts at 2 hour intervals at the first 24 hours and at 12-24 hours afterwards. From serial 10-fold dilutions of the experimental cultures, 100 μl samples were added to triplicate plates of nutrient agar plates (Oxoid) and blood agar plates (Oxoid). Colony forming units (CFU) were counted after incubation of the plates at 37° C. for 24 hours.
(§3) Cultures incubated for more than 24 hours are in the stationary phase. For drug screening, 5-6 day old stationary phase cultures were used.
(§4) Different concentrations of each test compound were incubated with stationary phase cultures (5-6 day cultures) in 96 well plates for 24 or 48 hours. Bactericidal activity was then determined by taking CFU counts of the resulting cultures, as described above.

stationary phase E. coli = assay: Bactericidal activity against stationary phase E. coli (CFU counts); format: cell-based, Escherichia coli; conditions: for log reduction at 6.25 µg/mL / log reduction at 12.5 µg/mL / log reduction at 25 µg/mL: Escherichia coli, read-out: Log kill
Description: as §1, §2, §3, §4

[2] = tested on: stationary phase P. aeruginosa; assay: Bactericidal activity against stationary phase P. aeruginosa; format: cell-based, Pseudomonas aeruginosa; conditions: FIG. 1
Description: as §2, with “Pseudomonas aeruginosa NCTC 6751; Gram negative; Reference strain. Bacteria” for “Bacteria”, “hours. Cultures incubated for more than 24 hours are in the stationary phase. For drug screening, 5-6 day old stationary phase cultures were used. Different concentrations of each test compound were incubated with stationary phase cultures (5-6 day cultures) in 96 well plates for 24 or 48 hours. Bactericidal activity was then determined by taking CFU counts of the resulting cultures, as described above.” for “hours.”

[3] = tested on: NDM-1 Klebsiella pneumoniae; assay: Chequerboard analysis with colistin against NDM-1 Klebsiella pneumoniae; format: cell-based
[4] = Escherichia coli, read-out: MIC

| Molecule | MIC (log phase E. coli; [4]) | log reduction at 6.25 µg/mL (persistent E. coli; 6.25 μg/ml) | log reduction at 12.5 µg/mL (persistent E. coli; 12.5 μg/ml) | log reduction at 25 µg/mL (persistent E. coli; 25 μg/ml) | log reduction at 6.25 µg/mL ([1]; 6.25 μg/ml) | log reduction at 12.5 µg/mL ([1]; 12.5 μg/ml) | log reduction at 25 µg/mL ([1]; 25 μg/ml) | log reduction at 6.25 µg/mL (stationary phase E. coli; 6.25 μg/ml) | log reduction at 12.5 µg/mL (stationary phase E. coli; 12.50 μg/ml) | log reduction at 25 µg/mL (stationary phase E. coli; 25.00 μg/ml) | MIC (log phase E. coli) | Log Kill (persistent E. coli; 6.25 μg/ml) | Log Kill (persistent E. coli; 12.5 μg/ml) | Log Kill (persistent E. coli; 25 μg/ml) | Log Kill (stationary phase E. coli; 6.25 μg/ml) | Log Kill (stationary phase E. coli; 12.50 μg/ml) | Log Kill (stationary phase E. coli; 25.00 μg/ml) | also measured |
| --- | --- | --- | --- | --- | --- | --- | --- | --- | --- | --- | --- | --- | --- | --- | --- | --- | --- | --- |
| N=C1C=CC(=C(c2ccc(N)cc2)c2ccc(N)cc2)C=C1 [Pararosaniline pamoate] | 10 µg/mL | -0.01 | 0.01 | 6.21 | 6.15 | 6.15 | 6.15 | 1.9 | 6.14 | 6.14 | – | – | – | – | – | – | – | – |
| CCCCCCCCNC(C)C(O)c1ccc(SC(C)C)cc1 (centres unmarked) [Suloctidil] | 10 µg/mL (≈ 29.6 µM) | 0.02 | 0.02 | 6.21 | 6.03 | 6.03 | 6.03 | – | – | – | – | – | – | – | – | – | – | activity against stationary phase P. aeruginosa [2]: no observable activity; spectrophotometer reading ([3]; suloctidil 0.25 mg/L alone): 0.97; spectrophotometer reading ([3]; suloctidil 0.5 mg/L alone): 1.03; spectrophotometer reading ([3]; suloctidil 1 mg/L alone): 0.98; spectrophotometer reading ([3]; suloctidil 2 mg/L alone): 0.93; spectrophotometer reading ([3]; suloctidil 4 mg/L alone): 0.94; spectrophotometer reading ([3]; suloctidil 8 mg/L alone): 0.70; spectrophotometer reading ([3]; suloctidil 16 mg/L alone): 0.60; spectrophotometer reading ([3]; suloctidil 32 mg/L alone): 0.60; spectrophotometer reading ([3]; suloctidil 64 mg/L alone): 0.38; spectrophotometer reading ([3]; suloctidil 128 mg/L alone): 0.44; spectrophotometer reading ([3]; suloctidil 256 mg/L alone): 0.61 |
| N.N.O=C([O-])C1(C(=O)[O-])CCC1.[Pt+2] [Carboplatin] | – | – | – | – | – | – | – | – | – | – | — (— signifies MIC higher than 50 μg/ml) | 1.55 | 2.55 | 6.21 | 6.14 | 6.14 | 6.14 | Log Kill ([1]; 6.25 μg/ml): 0.92; Log Kill ([1]; 12.5 μg/ml): 6.03; Log Kill ([1]; 25 μg/ml): 6.03 |
| Cl.Cl.O=C1c2c(O)ccc(O)c2C(=O)c2c(NCCNCCO)ccc(NCCNCCO)c21 [Mitoxanthrone hydrochloride] | – | – | – | – | – | – | – | – | – | – | — (— signifies MIC higher than 50 μg/ml) | 6.21 | 6.21 | 6.21 | 6.14 | 6.14 | 6.14 | – |
| Bleomycin | – | – | – | – | – | – | – | – | – | – | 0.15 µg/mL | 1.55 | 6.21 | 6.21 | 2.22 | 6.14 | 6.14 | – |
| CSc1ccc2c(c1)N(CCC1CCCCN1C)c1ccccc1S2 (centres unmarked) [Thioridazine hydrochloride] | 10 µg/mL | 0.04 | 0.03 | 6.21 | 6.03 | 6.03 | 6.03 | 6.14 | 6.14 | 6.14 | – | – | – | – | – | – | – | spectrophotometer reading ([3]; thioridazine hydrochloride 0.25 mg/L alone): 0.98; spectrophotometer reading ([3]; thioridazine hydrochloride 0.5 mg/L alone): 0.97; spectrophotometer reading ([3]; thioridazine hydrochloride 1 mg/L alone): 0.97; spectrophotometer reading ([3]; thioridazine hydrochloride 2 mg/L alone): 0.96; spectrophotometer reading ([3]; thioridazine hydrochloride 4 mg/L alone): 0.96; spectrophotometer reading ([3]; thioridazine hydrochloride 8 mg/L alone): 0.96; spectrophotometer reading ([3]; thioridazine hydrochloride 16 mg/L alone): 0.96; spectrophotometer reading ([3]; thioridazine hydrochloride 32 mg/L alone): 0.93; spectrophotometer reading ([3]; thioridazine hydrochloride 64 mg/L alone): 0.73; spectrophotometer reading ([3]; thioridazine hydrochloride 128 mg/L alone): 0.76; spectrophotometer reading ([3]; thioridazine hydrochloride 256 mg/L alone): 1.41 |
| N.N.[Cl][Pt][Cl] [Cisplatin] | – | – | – | – | – | – | – | – | – | – | — (— signifies MIC higher than 50 μg/ml) | 6.21 | 6.21 | 6.21 | 6.14 | 6.14 | 6.14 | Log Kill ([1]; 6.25 μg/ml): 6.03; Log Kill ([1]; 12.5 μg/ml): 6.03; Log Kill ([1]; 25 μg/ml): 6.03 |
| CN(C)CCCN1c2ccccc2Sc2ccc(C(F)(F)F)cc21 [Triflupromazine hydrochloride] | 10 µg/mL | 0.03 | 2.34 | 6.21 | 6.15 | 6.15 | 6.15 | 2.1 | 6.14 | 6.14 | – | – | – | – | – | – | – | spectrophotometer reading ([3]; triflupromazine 0.25 mg/L alone): 1.11; spectrophotometer reading ([3]; triflupromazine 0.5 mg/L alone): 1.13; spectrophotometer reading ([3]; triflupromazine 1 mg/L alone): 1.14; spectrophotometer reading ([3]; triflupromazine 2 mg/L alone): 1.13; spectrophotometer reading ([3]; triflupromazine 4 mg/L alone): 1.14; spectrophotometer reading ([3]; triflupromazine 8 mg/L alone): 1.17; spectrophotometer reading ([3]; triflupromazine 16 mg/L alone): 1.11; spectrophotometer reading ([3]; triflupromazine 32 mg/L alone): 1.08; spectrophotometer reading ([3]; triflupromazine 64 mg/L alone): 0.73; spectrophotometer reading ([3]; triflupromazine 128 mg/L alone): 0.76; spectrophotometer reading ([3]; triflupromazine 256 mg/L alone): 0.41 |
| CN(C)CC/C=C1/c2ccccc2Sc2ccc(Cl)cc21 [Chlorprothixene hydrochloride] | 20 µg/mL | 0.02 | 0.03 | 6.21 | 1.83 | 6.15 | 6.15 | – | – | – | – | – | – | – | – | – | – | spectrophotometer reading ([3]; chlorprothixene hydrochloride 0.25 mg/L alone): 1.14; spectrophotometer reading ([3]; chlorprothixene hydrochloride 0.5 mg/L alone): 1.15; spectrophotometer reading ([3]; chlorprothixene hydrochloride 1 mg/L alone): 1.13; spectrophotometer reading ([3]; chlorprothixene hydrochloride 2 mg/L alone): 1.12; spectrophotometer reading ([3]; chlorprothixene hydrochloride 4 mg/L alone): 1.12; spectrophotometer reading ([3]; chlorprothixene hydrochloride 8 mg/L alone): 1.13; spectrophotometer reading ([3]; chlorprothixene hydrochloride 16 mg/L alone): 1.10; spectrophotometer reading ([3]; chlorprothixene hydrochloride 32 mg/L alone): 1.05; spectrophotometer reading ([3]; chlorprothixene hydrochloride 64 mg/L alone): 0.70; spectrophotometer reading ([3]; chlorprothixene hydrochloride 128 mg/L alone): 0.62; spectrophotometer reading ([3]; chlorprothixene hydrochloride 256 mg/L alone): 0.40 |
| CO[C@@]12[C@H](COC(N)=O)C3=C(C(=O)C(C)=C(N)C3=O)N1C[C@@H]1N[C@@H]12 [Mitomycin C] | – | – | – | – | – | – | – | – | – | – | 0.3 µg/mL (≈ 0.897 µM) | 6.21 | 6.21 | 6.21 | 2.27 | 6.14 | 6.14 | Log Kill ([1]; 6.25 μg/ml): 6.15; Log Kill ([1]; 12.5 μg/ml): 6.15; Log Kill ([1]; 25 μg/ml): 6.15 |
| C[n+]1cc2c3c(ccc2c2ccc4cc5c(cc4c21)OCO5)OCO3 [Sanguinarine sulfate] | > 50 µg/mL | 0.04 | 1.47 | 6.21 | 6.15 | 6.15 | 6.15 | -0.1 | 2.4 | 6.14 | – | – | – | – | – | – | – | – |
